According to ChEMBL document CHEMBL4819009, “Modulators of hERAP2 discovered by high-throughput screening” (Eur J Med Chem, 2021):

Experiments:
[1] = biological target: T1, Endoplasmic reticulum aminopeptidase 2 (Homo sapiens, UniProt Q6P179); assay: Activation of recombinant ERAP2 (unknown origin) expressed in baculovirus infected Hi-5 insect cells at 100 uM using R-AMC as substrate preincubated for 30 mins followed by substrate addition and measured every 3 mins for 1 hr by flourescence assay relative to control; settings: filed as activator, time 90.0 min
T1 sequence (Q6P179 whole entry): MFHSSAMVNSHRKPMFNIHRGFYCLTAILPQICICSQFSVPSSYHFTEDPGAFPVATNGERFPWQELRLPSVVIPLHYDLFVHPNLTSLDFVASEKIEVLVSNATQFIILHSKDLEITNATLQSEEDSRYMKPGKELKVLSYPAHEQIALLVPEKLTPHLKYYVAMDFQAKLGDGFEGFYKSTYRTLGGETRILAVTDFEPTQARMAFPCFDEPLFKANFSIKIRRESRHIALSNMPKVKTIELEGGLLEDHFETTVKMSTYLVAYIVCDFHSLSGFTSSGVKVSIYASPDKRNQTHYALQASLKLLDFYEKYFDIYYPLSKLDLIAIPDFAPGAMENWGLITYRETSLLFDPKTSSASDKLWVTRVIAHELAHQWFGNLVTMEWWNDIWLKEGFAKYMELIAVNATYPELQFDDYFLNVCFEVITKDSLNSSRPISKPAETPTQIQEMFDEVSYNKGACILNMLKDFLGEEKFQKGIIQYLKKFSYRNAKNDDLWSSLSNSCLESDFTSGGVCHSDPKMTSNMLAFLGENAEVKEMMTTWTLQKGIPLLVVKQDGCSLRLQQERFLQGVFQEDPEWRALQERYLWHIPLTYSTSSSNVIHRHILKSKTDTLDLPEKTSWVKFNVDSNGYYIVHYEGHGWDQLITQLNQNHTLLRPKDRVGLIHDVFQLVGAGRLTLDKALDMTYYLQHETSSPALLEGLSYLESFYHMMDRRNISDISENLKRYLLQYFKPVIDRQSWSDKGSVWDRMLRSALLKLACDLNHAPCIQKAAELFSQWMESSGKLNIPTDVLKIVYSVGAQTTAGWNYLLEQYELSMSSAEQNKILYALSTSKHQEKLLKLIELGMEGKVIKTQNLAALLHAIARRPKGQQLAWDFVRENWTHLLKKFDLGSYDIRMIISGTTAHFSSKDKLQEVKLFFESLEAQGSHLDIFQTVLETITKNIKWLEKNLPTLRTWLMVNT

[2] = biological target: Endoplasmic reticulum aminopeptidase 1 (Homo sapiens) (UniProt Q9NZ08); assay: Inhibition of recombinant C-terminal 10-His-tagged human ERAP1 at 100 uM using L-AMC as substrate preincubated for 30 mins followed by substrate addition measured every 3 mins for 1 hr by flourescence assay relative to control; settings: time 90.0 min
Endoplasmic reticulum aminopeptidase 1 (Homo sapiens), sequence (Q9NZ08 whole entry): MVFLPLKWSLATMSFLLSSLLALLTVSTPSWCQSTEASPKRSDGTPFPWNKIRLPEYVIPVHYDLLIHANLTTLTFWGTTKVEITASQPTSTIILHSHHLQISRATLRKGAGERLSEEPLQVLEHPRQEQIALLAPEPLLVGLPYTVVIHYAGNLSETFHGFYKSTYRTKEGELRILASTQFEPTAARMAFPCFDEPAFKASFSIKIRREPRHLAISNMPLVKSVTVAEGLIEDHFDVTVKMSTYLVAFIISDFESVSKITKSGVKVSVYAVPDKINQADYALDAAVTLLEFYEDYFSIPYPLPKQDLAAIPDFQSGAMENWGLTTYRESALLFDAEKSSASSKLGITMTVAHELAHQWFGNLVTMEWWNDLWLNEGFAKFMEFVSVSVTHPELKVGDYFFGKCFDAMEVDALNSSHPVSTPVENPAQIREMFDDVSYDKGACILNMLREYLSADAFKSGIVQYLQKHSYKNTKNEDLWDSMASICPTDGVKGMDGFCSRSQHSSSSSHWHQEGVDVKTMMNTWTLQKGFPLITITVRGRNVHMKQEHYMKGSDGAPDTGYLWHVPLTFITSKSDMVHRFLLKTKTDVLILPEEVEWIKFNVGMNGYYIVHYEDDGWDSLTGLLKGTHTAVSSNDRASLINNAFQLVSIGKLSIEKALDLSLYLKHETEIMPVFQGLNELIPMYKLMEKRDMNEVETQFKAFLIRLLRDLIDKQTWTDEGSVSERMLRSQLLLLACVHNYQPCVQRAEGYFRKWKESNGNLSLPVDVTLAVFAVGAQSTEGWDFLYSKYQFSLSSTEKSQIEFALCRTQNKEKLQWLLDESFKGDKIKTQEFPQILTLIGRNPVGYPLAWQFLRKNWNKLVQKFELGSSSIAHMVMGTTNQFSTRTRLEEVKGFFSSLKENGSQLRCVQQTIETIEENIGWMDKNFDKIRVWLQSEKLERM

[3] = biological target: Leucyl-cystinyl aminopeptidase (IRAP), Homo sapiens (UniProt Q9UIQ6); assay: Inhibition of recombinant human IRAP expressed in HEK293 cells at 100 uM using L-AMC as substrate preincubated for 30 mins followed by substrate addition measured every 3 mins for 1 hr by flourescence assay relative to control; settings: time 90.0 min
Leucyl-cystinyl aminopeptidase (IRAP), Homo sapiens, sequence (Q9UIQ6 whole entry, looked up): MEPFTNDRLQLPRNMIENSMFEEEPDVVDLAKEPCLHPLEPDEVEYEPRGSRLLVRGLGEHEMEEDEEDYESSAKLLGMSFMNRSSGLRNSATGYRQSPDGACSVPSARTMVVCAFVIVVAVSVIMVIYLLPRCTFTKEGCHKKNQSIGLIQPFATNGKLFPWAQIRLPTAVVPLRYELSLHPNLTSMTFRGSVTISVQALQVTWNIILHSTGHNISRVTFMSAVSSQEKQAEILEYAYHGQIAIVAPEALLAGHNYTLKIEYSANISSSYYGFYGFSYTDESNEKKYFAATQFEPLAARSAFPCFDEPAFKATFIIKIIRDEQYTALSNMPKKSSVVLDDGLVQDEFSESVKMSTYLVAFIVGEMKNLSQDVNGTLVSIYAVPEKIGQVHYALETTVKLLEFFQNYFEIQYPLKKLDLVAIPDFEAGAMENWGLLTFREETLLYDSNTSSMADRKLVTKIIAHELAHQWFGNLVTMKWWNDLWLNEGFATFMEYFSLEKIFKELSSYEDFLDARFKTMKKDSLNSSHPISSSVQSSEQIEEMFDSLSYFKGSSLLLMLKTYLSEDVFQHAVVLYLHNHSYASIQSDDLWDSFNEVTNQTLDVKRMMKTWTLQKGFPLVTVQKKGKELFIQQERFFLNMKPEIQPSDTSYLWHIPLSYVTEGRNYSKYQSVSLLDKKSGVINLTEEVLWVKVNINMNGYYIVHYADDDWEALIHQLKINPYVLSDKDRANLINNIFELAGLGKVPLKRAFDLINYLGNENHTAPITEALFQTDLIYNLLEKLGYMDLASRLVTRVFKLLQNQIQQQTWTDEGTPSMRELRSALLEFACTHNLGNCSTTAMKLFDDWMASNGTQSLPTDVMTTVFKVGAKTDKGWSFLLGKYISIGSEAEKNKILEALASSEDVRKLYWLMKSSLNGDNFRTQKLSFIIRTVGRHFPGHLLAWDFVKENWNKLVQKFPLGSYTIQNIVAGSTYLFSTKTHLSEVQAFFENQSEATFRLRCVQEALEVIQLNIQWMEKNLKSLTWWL

[4] = biological target: T1, Endoplasmic reticulum aminopeptidase 2; assay: Inhibition of human ERAP2 assessed as hydrolysis of KSIINFEKL to SIINFEKL measured after 2 hrs by LC-MS analysis
[5] = biological target: T1, Endoplasmic reticulum aminopeptidase 2; assay: Inhibition of human ERAP2
[6] = biological target: T1, Endoplasmic reticulum aminopeptidase 2; assay: Inhibition of recombinant ERAP2 (unknown origin) expressed in baculovirus infected insect cells at 2 mM using R-AMC as substrate preincubated for 30 mins followed by substrate addition and measured every 3 mins for 1 hr by flourescence assay relative to control; settings: time 90.0 min
[7] = biological target: T1, Endoplasmic reticulum aminopeptidase 2; assay: Inhibition of recombinant ERAP2 (unknown origin) expressed in baculovirus infected Hi-5 insect cells using R-AMC as substrate preincubated for 30 mins followed by substrate addition and measured every 3 mins for 1 hr by flourescence assay

fold change (FC) [1]	inhibition [2] [%]	inhibition [3] [%]	SMILES	other results
1.46	–	–	CC(C)C[C@@H](C(=O)O)N(C)C(=O)c1ccc(N(CCc2ccccc2)S(=O)(=O)c2ccc(F)cc2)cc1	–
1.84	< 20	50	CN(C(=O)c1ccc(N(CCc2ccccc2)S(=O)(=O)c2ccc(F)cc2)cc1)[C@@H](Cc1ccccc1)C(=O)O	–
1.76	< 20	50	CN(C(=O)c1ccc(N(CCc2ccccc2)S(=O)(=O)c2ccccc2)cc1)[C@@H](Cc1ccccc1)C(=O)O	IC50 [4]: 89 µM
–	< 10	–	O=C(O)CN(CC(=O)N1CCN(Cc2ccccc2)C[C@@H]1Cc1c[nH]c2ccccc12)c1ccccc1	–
1.43	–	–	CC(C)C[C@@H](C(=O)O)N(C)C(=O)c1ccc(N(CCc2ccccc2)S(=O)(=O)c2ccccc2)cc1	–
–	–	–	C#CC[C@H](CP(=O)(O)[C@@H](N)CCc1ccccc1)C(=O)N[C@@H](Cc1ccccc1)C(N)=O	IC50 [5]: 33 µM
–	–	–	CC(C)C[C@H](NC(=O)[C@@H](O)[C@H](N)Cc1ccccc1)C(=O)O	inhibition [6]: 100%
–	10	49	CN(C(=O)c1ccc(N(CCN2CCCC2)S(=O)(=O)c2ccc(F)cc2)cc1)[C@@H](Cc1ccccc1)C(=O)O	IC50 [4]: 98 µM; IC50 [7]: 9.7 µM
